Patent publication US10054581B1, “Inhibitors of notch signaling pathway and use thereof in treatment of cancers” (Ecole Polytechnique Federale de Lausanne (EPFL), priority 2011, dated 2018)
Entries after “also recorded” stand apart in the source; their conditions may differ.

Legend:
DND41-Parental cell line = experiment: Alamar blue proliferation assay, DND41-Parental; format: cell-based, human; details: over 5 days
Experimental: FIGS. 5A-5E show 6-(4-Tert-Butylphenoxy)Pyridin-3-Amine (I3) blocks NICD dependent growth of human cancer cells. […] Western blot analyses were carried out for Hes1 protein using Hes1 specific antibodies. […] Growth kinetics of the parental cell line was followed over 5 days using Alamar blue readout. […] This mutation renders this cell line insensitive to γ-secretase inhibitor treatment. […] The cells were treated with DMSO, γ-secretase inhibitor DAPT and I3 for 6 days. Alamar blue readout was taken at day 0, day 2, day 4 and day 6. Eight replicates were used for each treatment and time point. […] P values were calculated using Student's t.test. *=p value<0.05. ns=not significant.
Alamarblue® proliferation assays were performed to determine the growth kinetics of Notch inhibitor treated cells. […] In metabolically active and proliferating cells, resazurin is converted to resorufin due to an intrinsic reducing power of live cells and produces a red fluorescence. […]
Proliferation assays were performed by seeding 5000 cells/well in a 96 well plate. […] Alamarblue readout was taken using Tecan F500 (Tecan) multiplate reader.
6-(4-Tert-Butylphenoxy)Pyridin-3-Amine (I3) can block NICD mediated activation of the Notch pathway (FIGS. 1A-D). […] In addition, these two cell lines were also monitored over several days for anti-proliferative effects of 6-(4-Tert-Butylphenoxy)Pyridin-3-Amine (I3) and DAPT.

C2C12 myoblasts = experiment: C2C12 myoblast differentiation assay; format: cell-based; details: growth medium (10% serum), 3 days
Experimental: C2C12 cells were grown on collagen-coated cover slip in the presence of growth media (10% serum). To induce myoblast differentiation, cells were grown to 100% confluency for 3 days in the presence of differentiation media (2% horse serum) or in the presence of growth media+Notch inhibitors. After 3 days, cells were washed with 1× ice-cold PBS and fixed with 4% PFA. Immunofluorescence staining was performed using anti-MHC antibody as explained in the section 2.2.6 (Immunofluorescence staining).
To further confirm the Notch inhibitory potential of 6-(4-Tert-Butylphenoxy)Pyridin-3-Amine (I3) in different systems, C2C12 myoblast differentiation was used as a functional assay. The Notch pathway activation in C2C12 myoblasts retains them in an undifferentiated state, while abrogation of Notch signalling induces their differentiation. C2C12 myoblasts were treated with DMSO, 6-(4-Tert-Butylphenoxy)Pyridin-3-Amine (I3) and DAPT and grown to 100% confluency for 3 days. After three days, cells were fixed and stained with antibodies against Myosin Heavy Chain (MHC) protein. Cell nuclei were counterstained with DAPI.

PANC1 = experiment: Alamar blue proliferation assay, PANC1; format: cell-based, human; details: 10 μM, 4 days
Experimental: Human T-ALL cell lines RPMI 8402 and KOPTK1, and pancreatic cancer cell line PANC1 as well as nRas driven melanoma cells were seeded in a 96 well plate and treated with 10 μM concentration of 6-(4-Tert-Butylphenoxy)Pyridin-3-Amine (I3) and DAPT for several days. Their growth inhibitory effects were compared with cells treated with equal amount of DMSO. Using Alamar blue assay, the growth kinetics of RPMI 8402 and KOPTK1 were followed for upto 6 days, while PANC1 and nRas melanoma cells were monitored for 4 days. 6-(4-Tert-Butylphenoxy)Pyridin-3-Amine (I3) treatment of RPMI 8402, KOPTK1. […] Statistical analyses were done using student's t.test. *=p value<0.05. ns=not significant.
Alamarblue® proliferation assays were performed to determine the growth kinetics of Notch inhibitor treated cells. Alamar Blue® consists of a cell permeable substrate resazurin. In metabolically active and proliferating cells, resazurin is converted to resorufin due to an intrinsic reducing power of live cells and produces a red fluorescence. Therefore production of resorufin serves as an indicator of the viability of the cell population.
Proliferation assays were performed by seeding 5000 cells/well in a 96 well plate. Cells were treated with DMSO or Notch inhibitors for different time intervals. […] Alamarblue readout was taken using Tecan F500 (Tecan) multiplate reader. […]

HCC1187 = experiment: Cell cycle analysis (Ki67 and Hoechst stain), HCC1187; format: cell-based, human; details: 10 μM, 48 hours
Experimental: FIGS. 6A-6D show 6-(4-Tert-Butylphenoxy)Pyridin-3-Amine (I3) induces G0/G1 cell cycle arrest and apoptosis in human T cell acute lymphoblastic leukemia cell lines and human breast cancer cell line HCC1187. […] Percentage of Annexin V positive (apoptotic) cell population was measured using flow cytometry.
In addition to induction of apoptosis, the proliferative arrest observed in 6-(4-Tert-Butylphenoxy)Pyridin-3-Amine (I3) treated human leukemic cell lines and breast cancer cell line also appears to be due to cell cycle arrest in G0/G1 phase of the cell cycle. Leukemic cell lines (RPMI8402, KOPTK1 and TALL1) and breast cancer cell lines were treated with 6-(4-Tert-Butylphenoxy)Pyridin-3-Amine (I3) for 48 hours and cell cycle status was determined using Ki67 and Hoechst stain.

SMILES | proliferation (Alamar blue) (DND41-Parental cell line) | differentiation into MHC positive myotubes (C2C12 myoblasts) | proliferation (Alamar blue) (PANC1) | cell cycle status (HCC1187)
C[C@H](NC(=O)Cc1cc(F)cc(F)c1)C(=O)N[C@H](C(=O)OC(C)(C)C)c1ccccc1 [DAPT, N—[N-(3,5-difluorophenacetyl-Lalanyl)]-(S)-phenylglycine t-butyl ester, reference compound] | caused a significant proliferative block; also recorded: caused a proliferation arrest | started to differentiate into multinucleated MHC positive myotubes | induced a significant proliferation block | 
CC(C)(C)c1ccc(Oc2ccc(N)cn2)cc1 [I3, 6-(4-Tert-Butylphenoxy)Pyridin-3-Amine] | caused a significant proliferative block; also recorded: caused a proliferation arrest | started to differentiate into multinucleated MHC positive myotubes; also recorded: can induce differentiation of C2C12 cells into MHC expressing multinucleated myotubes | induced a significant proliferation block; also recorded: caused a significant reduction in their growth potential | induces an arrest in the G0/G1 phase of the cell cycle
